In patent EP4667007A2, “NOVEL ASSOCIATION OF GASTRODIA ELATA AND VITAMIN B” (Futura S.r.l., priority 2024, dated 2025):
Read-outs that look alike come from different tables or passages of the source.

Key:
[1] = system: Caco-2 cells; assay: In vitro intestinal barrier model, absorption with fluorescent tracer (Transwell)
[2] = system: neuregulin 1 (NRG1); assay: 3D EngNT under PNI conditions, NRG1 ELISA; format: cell-based, rat; conditions: GGF 200 ng/mL, result in words
Method: To replicate a strong demyelination before stimulation with the two formulations and the single drugs, the 3D EngNT was pre-treated with 200 ng/mL glial growth factor 2 (GGF) starting on day 14 of maturation. This was necessary since the study needed to replicate the peripheral nerve tissue damage in vitro. Therefore, further studies were conducted to investigate the effects on cell viability and ROS production (Figures 5A-B). […] In contrast, both the individual components and formulations were able not only to re-establish physiological conditions, but also to induce a significant increase in cell viability and a decrease in ROS production (p<0.05). […]
This study was carried out in three different phases; the starting point of the study protocol was intended to study the absorption and transport processes of the novel formulation and individual components through the intestinal barrier using a 3D in vitro model with Caco-2 cells. […] Finally, in the third phase, peripheral nerve damage and demyelination were simulated in vitro, treating 3D EngNT with GGF 200ng/ml, to explore cell survival and mitochondrial activity, oxidative stress and ROS quantification, the inflammatory processes involved in neuropathy, nociceptive pathways for pain control, and the main pathways involved in the processes of myelin sheath protection and neurite formation. […]

[3] = system: Caco-2 cells; conditions: human

Absorption Rate ([3]; 3 h) [%]	Absorption Rate ([3]; 4 h) [%]	Absorption Rate ([3]; 5 h) [%]	Absorption Rate ([3]; 6 h) [%]	SMILES	Absorption Rate ([1]; 2h, Gastrodin 25µM, Citicoline 250mM, Acetyl-L-Carnitine 7.5µM, Vit. B group 1mg/mL, Lipoic Acid 50µM) [%]	Absorption Rate ([1]; 3h, same concentrations) [%]	Absorption Rate ([1]; 4h, same concentrations) [%]	Absorption Rate ([1]; 5h, same concentrations) [%]	Absorption Rate ([1]; 6h, same concentrations) [%]	NRG1 activity [2]
–	–	–	–	CC(=O)O[C@H](CC(=O)[O-])C[N+](C)(C)C [Acetyl-L-Carnitine, (R)-3-acetyloxy-4-trimethylammonium-butanoate]	69.49	77.35	80.65	69.90	54.16	–
49.27	53.77	51.71	41.36	O=C(O)CCCCC1CCSS1 (stereo not shown) [Lipoic acid]	–	–	–	–	–	not able to improve it compared to GGF 200ng/mL
